In ChEMBL document CHEMBL1201862, “PubChem BioAssay data set” (2004):
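Grown in 96-well plates, cells were treated for 48 hours with each compound at five concentrations. Insufficient inhibition: endpoint recorded as highest concentration tested. GI50: concentration for 50% inhibition of growth.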 Calls of active or inactive are those of the source. No stated cut-off is given here; in the data, active = GI50 up to about 1.1 µM and inactive = higher. Where a SMILES comes first, the peptide text is derived from it. [ ]: non-standard residue; d: D form. The star is where a group is joined. ξ: configuration not given here. ξPhe(4-NO2) = NC(Cc1ccc([N+](=O)[O-])cc1)C(=O)O; Boc = CC(C)(C)OC(=O)*

Assays:
Test in all cases: NCI tumour cell line growth inhibition, 48 h
[1] = tested on: 786-0
[2] = tested on: BT-549
[3] = tested on: DU-145
[4] = tested on: EKVX
[5] = tested on: HL-60
[6] = tested on: HT-29
[7] = tested on: MDA-MB-435
[8] = tested on: MOLT-4
[9] = tested on: Malme-3M
[10] = tested on: NCI-H522
[11] = tested on: OVCAR-5
[12] = tested on: PC-3
[13] = tested on: RPMI-8226
[14] = tested on: RXF 393
[15] = tested on: SF-268
[16] = tested on: SK-MEL-28
[17] = tested on: SNB-75
[18] = tested on: UACC-62
[19] = tested on: UO-31
[20] = tested on: LXFL 529

Measured: GI50

C#CCOC(=O)C(N)C(C)O (centres undefined)
inactive: [1] > 100 µM | [2] > 100 µM | [3] > 100 µM | [4] > 100 µM | [5] > 100 µM | [6] > 100 µM | [7] > 100 µM | [8] > 100 µM | [9] > 100 µM | [10] > 100 µM | [11] > 100 µM | [12] > 100 µM | [13] > 100 µM | [14] > 100 µM | [15] > 100 µM | [16] > 100 µM | [17] > 100 µM | [18] > 100 µM | [19] > 100 µM

CCOC(=O)CN1C(=O)c2c(c(C)n(-c3ccccc3)c2C)C1=O
inactive: [1] > 100 µM | [2] > 100 µM | [3] > 100 µM | [4] > 100 µM | [5] > 100 µM | [6] > 100 µM | [7] > 100 µM | [8] > 100 µM | [9] > 100 µM | [10] > 100 µM | [11] > 100 µM | [12] > 100 µM | [13] > 100 µM | [14] 26 µM | [15] > 100 µM | [16] > 100 µM | [17] 82.8 µM | [18] > 100 µM | [19] > 100 µM

COC(=O)C1C2OC(C)(C)OC2CN1S(=O)(=O)c1ccc(C)cc1 (centres undefined)
inactive: [1] > 100 µM | [2] > 100 µM | [3] > 100 µM | [4] 8.04 µM | [5] > 100 µM | [6] > 100 µM | [7] > 100 µM | [8] > 100 µM | [9] > 100 µM | [10] > 100 µM | [11] > 100 µM | [12] > 100 µM | [13] > 100 µM | [14] > 100 µM | [15] > 100 µM | [16] > 100 µM | [17] 10.9 µM | [18] > 100 µM | [19] > 100 µM

COC(=O)c1ccccc1N1C(=O)Cc2ccccc2C1=O
inactive: [1] 66.1 µM | [4] > 100 µM | [6] > 100 µM | [20] > 100 µM | [8] > 100 µM | [9] > 100 µM | [11] > 100 µM | [13] > 100 µM | [14] 42.3 µM | [15] 55.1 µM | [16] > 100 µM | [17] 21.6 µM | [18] 72.6 µM | [19] > 100 µM

Cc1cc(Nc2ccc(/N=N/c3ccc(O)c4ncccc34)cc2)nc(C)n1
inactive: [1] 12.6 µM | [2] 16.4 µM | [3] 18.2 µM | [4] 34.8 µM | [5] 3.97 µM | [6] 31.2 µM | [7] 9.29 µM | [8] 3.93 µM | [9] 18.6 µM | [10] 10.7 µM | [11] 35.2 µM | [12] 14.4 µM | [13] 5.61 µM | [14] 12.7 µM | [15] 14.6 µM | [16] 11.2 µM | [17] 9.35 µM | [18] 6.38 µM | [19] 11 µM

CCNC(=O)CNC(=O)C(Cc1ccc([N+](=O)[O-])cc1)NC(=O)OC(C)(C)C (centres undefined) (Boc-[ξPhe(4-NO2)]-Gly-NHEt)
inactive: [1] > 100 µM | [2] > 100 µM | [3] > 100 µM | [4] > 100 µM | [5] > 100 µM | [6] > 100 µM | [7] > 100 µM | [8] > 100 µM | [9] > 100 µM | [10] > 100 µM | [11] > 100 µM | [12] > 100 µM | [13] > 100 µM | [14] > 100 µM | [15] > 100 µM | [16] > 100 µM | [17] > 100 µM | [18] > 100 µM | [19] > 100 µM

NC(Cc1c[nH]c2ccccc12)P(=O)(O)O (centres undefined)
inactive: [1] > 100 µM | [2] > 100 µM | [3] > 100 µM | [4] > 100 µM | [5] > 100 µM | [6] > 100 µM | [7] > 100 µM | [8] > 100 µM | [9] > 100 µM | [10] > 100 µM | [11] > 100 µM | [12] > 100 µM | [13] > 100 µM | [14] > 100 µM | [15] > 100 µM | [16] > 100 µM | [17] > 100 µM | [18] > 100 µM | [19] > 100 µM

C/C=C/C=C/C1=NN(c2cccc(S(=O)(=O)O)c2)C2(C1)C(Cl)C(=O)N2c1nc2ccccc2s1 (centres undefined)
inactive: [1] 13.8 µM | [2] 17.7 µM | [3] 13.4 µM | [4] 16.4 µM | [5] 15.6 µM | [6] 17 µM | [7] 13.4 µM | [8] 28.6 µM | [9] 17.1 µM | [10] 4.22 µM | [11] 17.4 µM | [12] 13.5 µM | [13] 17.3 µM | [14] 6.3 µM | [15] 16.6 µM | [16] 20.6 µM | [17] 12.4 µM | [18] 13 µM | [19] 2 µM

CCOC(=O)CCC(NC(=O)Cc1ccc(Nc2nc3ccccc3nc2-c2cccs2)cc1)C(=O)OCC (centres undefined)
inactive: [1] 29.6 µM | [2] > 100 µM | [3] 44.2 µM | [4] 53.7 µM | [5] > 100 µM | [6] > 100 µM | [7] 38.1 µM | [8] > 100 µM | [9] 49.8 µM | [10] 32 µM | [11] > 100 µM | [12] 45.7 µM | [13] > 100 µM | [14] 12.9 µM | [15] 24 µM | [16] > 100 µM | [17] 18.1 µM | [18] 64.6 µM | [19] > 100 µM

c1cc2c(cc1NC1=NCCO1)CCCC2
inactive: [1] 5.07 µM | [2] 13.7 µM | [3] 5.08 µM | [4] 8.04 µM | [5] 2.66 µM | [6] 2.62 µM | [7] 1.57 µM | [8] 2.65 µM | [9] 6.7 µM | [10] 3.52 µM | [11] 6.07 µM | [12] 3.01 µM | [13] 2.92 µM | [14] 2.67 µM | [15] 5.56 µM | [16] 5.19 µM | [17] 2.08 µM | [18] 4.11 µM | [19] 6.97 µM

O=C(O)c1nc(-c2ccccc2)ncc1-c1nnnn1-c1ccccc1
inactive: [1] > 100 µM | [2] > 100 µM | [3] > 100 µM | [4] > 100 µM | [5] > 100 µM | [6] > 100 µM | [7] > 100 µM | [8] > 100 µM | [9] > 100 µM | [10] > 100 µM | [11] > 100 µM | [12] > 100 µM | [13] > 100 µM | [14] > 100 µM | [15] > 100 µM | [16] > 100 µM | [17] > 100 µM | [18] > 100 µM | [19] > 100 µM
